Laboratory results from US8653258B2, “Compositions for regulating or modulating quorum sensing in bacteria, methods of using the compounds, and methods of regulating or modulating quorum sensing in bacteria” (Georgia State University Research Foundation, Inc., priority 2007, dated 2014).
Where “and” joins values, the source holds several entries; their conditions need not be identical. Equal values may be shown once. Read-outs that look alike come from different tables or passages of the source.

Assays:
[1] = tested on: AI-2-mediated gene expressions; conditions: at about 323 μM; cited from earlier work
[2] = tested on: AI-2-mediated quorum sensing; assay: microbe, parasite or virus in culture; format: cell-based, Vibrio harveyi; conditions: tested at least 3 times
Experimental: The candidate compounds identified as described in Example 1, above, were tested for their ability to inhibit AI-2 induced quorum sensing using the MM32 strain of V. harveyi. […] The V. harveyi bacteria can also emit luminescence upon AI-2 induced quorum sensing stimulation. Therefore, the ability of the “virtually” identified compounds to inhibit luminescence production in the presence of DPD and boric acid was examined.
MM32 bacteria were streak-seeded on fresh LM plates and cultured in the presence of kanamycin (50 μg/mL) and chloramphenicol (10 μg/mL). Colonies appeared after overnight incubation at 30° C. A single colony was picked up from the LM plate. This strain was grown for 16 hrs with aeration at 175 r.p.m and at 30° C. in 2 mL of Autoinducer Bioassay (AB) medium with antibiotics (kanamycin 50 μg/mL and chloramphenicol 10 μg/mL). The culture was then diluted to an OD600 0.7. This preinoculum was grown in AB-Fe medium with 1.2 mM of iron to OD600 1.0-1.1. The resulting inoculum culture was then diluted 5000-fold in fresh AB medium.
Solutions of the test compounds in AB medium were prepared in 96-well plates. To these solutions, freshly synthesized DPD (pH=7) solution was added for a final concentration of 5 μM. Boric acid was added to give a final concentration of 1 mM. After the addition of bacteria in AB medium, the micro plates were covered with a non-toxic plate sealer and incubated at 30° C. with aeration for 3-4 hrs.
In an initial round of screening, the concentration of the test compounds was fixed at 100 μg/mL (about 200-600 μM).

V. harveyi = assay: Bacterial growth curves (doubling time); format: cell-based, Vibrio harveyi
Source text: To make sure that the observed luminescence intensity changes were not due to inhibition of bacterial growth, the effect of these boronic acids on bacterial growth was also studied.

cysteines in protein = conditions: read-out: EC50, covalent modification of cysteines in protein; cited from earlier work
[3] = V. harveyi MM32, DPD 5 μM, boric acid 1 mM, read-out: IC50 value, inhibition of AI-2-mediated quorum sensing (V. harveyi luminescence)
[4] = compound at 125 μM, control 79.4 min
[5] = Vibrio harveyi, read-out: IC50 value, inhibition of AI-2-mediated quorum sensing (V. harveyi luminescence), V. harveyi MM32, DPD 5 μM, boric acid 1 mM

| Compound | IC50 [2, 5] [µM] | other results |
| --- | --- | --- |
| CCCCC1=C(Br)/C(=C/Br)OC1=O [(5Z)-4-bromo-5-(bromomethylene)-3-butyl-2(5H)-furanone] |  | inhibition of AI-2-mediated gene expressions [1]: inhibit many AI-2-mediated gene expressions |
| OB(O)c1cncc2ccccc12 [Compound 4-IQBA] |  | IC50 [2, 3]: 66 µM and 66.1 µM; doubling time (V. harveyi; [4]): 80.4 min |
| OB(O)c1cccc2cnccc12 [Compound 5-IQBA] |  | IC50 [2, 3]: 30 µM and 30.4 µM; doubling time (V. harveyi; [4]): 99.2 min |
| CC(C)OC(=S)CS(=O)(=O)c1ccccc1 [Compound 23] | 33 ± 4 |  |
| Oc1cccc(O)c1O [Compound 61, pyrogallol] | 2 | effect on bacterial growth (V. harveyi): not due to growth inhibition; doubling time (V. harveyi; compound at 5 μM, control 78.9 min): 78.4 min |
| c1ccc2c(c1)Nc1ccccc1S2 [Compound 62, phenothiazine] | 10 | IC50 ([2]; read-out: IC50 value, inhibition of AI-2-mediated quorum sensing (V. harveyi luminescence), V. harveyi MM32, DPD 5 μM, boric acid 1 mM): 10.7 ± 3.7 µM; effect on bacterial growth (V. harveyi): not due to growth inhibition; doubling time (V. harveyi; compound at 20 μM, control 78.9 min): 72.3 min |
| Oc1ccccc1O [Compound 63, catechol] | 59 ± 9 |  |
| CCOC(=S)CS(=O)(=O)c1ccc(Br)cc1 [Compound H14] | 13.8 ± 2 |  |
| CCOC(=S)CS(=O)(=O)c1ccc(OC)cc1 [Compound H18] | 26 ± 3.5 |  |
| CCOC(=O)CS(=O)(=O)c1ccc(-c2ccc3c(c2)OCCO3)cc1 [Compound H20] | 157 ± 43 |  |
| CCOC(=O)CS(=O)(=O)c1ccc(-c2ccc(C)cc2)cc1 [Compound H21] | 8.2 ± 2.3 |  |
| CCOC(=O)CS(=O)(=O)c1ccc(-c2ccc(C(N)=O)cc2)cc1 [Compound H24] | 31.3 ± 23 |  |
| CCCS(=O)(=O)CC(=S)OCC [Compound H26] | 21.6 ± 2.9 |  |
| CCOC(=O)CS(=O)(=O)c1cccc(Br)c1 [Compound H28] | 162 ± 22 |  |
| O=CC=Cc1ccccc1 [cinnamaldehyde] |  | EC50 (cysteines in protein): 19 µM |
